In BindingDB's records for doi:10.1016/j.bmcl.2017.09.011 (Alma Mater Studiorum-University of Bologna, 2017):

Target: DNA topoisomerase 2-alpha (Homo sapiens, UniProt P11388)
Assay: ChEBML_1696318
Procedure: Inhibition of recombinant human topoisomerase-2alpha expressed in Saccharomyces cerevisiae JEL1 harboring topoisomerase1 deletion mutant assessed as reduction in enzyme-mediated [gamma32P]ATP hydrolysis using relaxed pBR322 DNA as substrate after 8 mins

Chain of DNA topoisomerase 2-alpha (P11388 whole entry): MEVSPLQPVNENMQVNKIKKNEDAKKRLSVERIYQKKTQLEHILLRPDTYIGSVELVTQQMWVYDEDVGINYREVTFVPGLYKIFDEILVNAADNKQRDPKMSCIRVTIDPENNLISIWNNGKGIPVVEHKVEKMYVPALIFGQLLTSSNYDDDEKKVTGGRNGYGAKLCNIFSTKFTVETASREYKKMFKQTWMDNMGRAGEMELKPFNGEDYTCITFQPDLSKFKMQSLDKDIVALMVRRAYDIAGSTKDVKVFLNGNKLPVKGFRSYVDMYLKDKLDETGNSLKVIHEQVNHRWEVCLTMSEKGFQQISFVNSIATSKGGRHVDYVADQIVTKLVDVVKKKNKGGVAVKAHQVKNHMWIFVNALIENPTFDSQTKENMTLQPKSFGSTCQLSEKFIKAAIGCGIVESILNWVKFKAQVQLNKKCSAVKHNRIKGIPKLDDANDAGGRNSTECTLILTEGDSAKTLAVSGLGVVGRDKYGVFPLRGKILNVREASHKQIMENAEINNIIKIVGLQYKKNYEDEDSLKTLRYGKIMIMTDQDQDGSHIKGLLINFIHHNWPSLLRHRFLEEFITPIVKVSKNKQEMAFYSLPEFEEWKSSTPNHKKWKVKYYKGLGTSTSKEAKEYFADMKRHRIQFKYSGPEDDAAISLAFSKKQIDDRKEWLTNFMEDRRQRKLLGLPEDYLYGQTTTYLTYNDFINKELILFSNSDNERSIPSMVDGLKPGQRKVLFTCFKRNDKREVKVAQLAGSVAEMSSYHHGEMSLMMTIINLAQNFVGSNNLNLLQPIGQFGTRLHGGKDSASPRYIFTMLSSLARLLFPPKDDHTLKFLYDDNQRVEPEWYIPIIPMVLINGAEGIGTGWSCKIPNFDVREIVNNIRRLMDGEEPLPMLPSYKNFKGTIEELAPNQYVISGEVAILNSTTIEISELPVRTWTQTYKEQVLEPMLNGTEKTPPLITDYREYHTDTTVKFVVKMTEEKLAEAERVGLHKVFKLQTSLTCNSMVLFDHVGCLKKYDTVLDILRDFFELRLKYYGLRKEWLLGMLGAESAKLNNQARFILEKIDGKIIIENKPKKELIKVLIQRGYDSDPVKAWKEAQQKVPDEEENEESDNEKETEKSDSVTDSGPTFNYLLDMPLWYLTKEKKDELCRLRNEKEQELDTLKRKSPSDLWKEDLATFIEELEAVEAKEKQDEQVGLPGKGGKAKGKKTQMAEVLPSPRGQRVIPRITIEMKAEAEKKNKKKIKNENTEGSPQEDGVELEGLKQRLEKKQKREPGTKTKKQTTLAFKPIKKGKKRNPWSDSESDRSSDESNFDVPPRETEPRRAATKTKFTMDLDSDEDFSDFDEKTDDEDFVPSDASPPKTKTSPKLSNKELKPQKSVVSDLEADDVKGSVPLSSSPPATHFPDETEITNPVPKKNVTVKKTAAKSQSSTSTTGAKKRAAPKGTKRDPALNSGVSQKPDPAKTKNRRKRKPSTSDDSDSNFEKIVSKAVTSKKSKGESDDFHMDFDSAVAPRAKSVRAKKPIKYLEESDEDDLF

Question: Which IC50 does the source give for NCCCCNCC(O)COc1cc(O)c2c(=O)c3ccccc3oc2c1 (stereo unspecified) here?
Answer: 2500 nM
